This is an account of results in patent US20020169140A1, “Combination therapy for reduction of toxicity of chemotherapeutic agents” (priority 2001, published 2002).

The term IC50 denotes the concentration that gives 50% inhibition.

The test system of assay [1] is large cell lung cancer line LXFL 529L. Description: Monolayer proliferation inhibition, modified propidium iodide assay. It is filed as cell-based. The conditions noted are these: for in vitro activity of the agent alone: single agent, stated for both cell lines; for In vitro activity (Test/Control %): 4 days exposure, median of 5 experiments; for tumour effects (words): circiliol alone at 3 μg/ml.

Assay [2] concerns lung adenocarcinoma cell line LXFA 526L. The assay is described as above. Type of assay: cell-based. The following applies: for in vitro activity of the agent alone: single agent, stated for both cell lines; for In vitro activity (Test/Control %): 4 days exposure, median of 5 experiments; for tumour effects (words): circiliol alone at 3 μg/ml.
Where [3] appears, read: LXFA 529L, 0 μg/ml circiliol, median of 2-5 experiments.
Where [4] appears, read: LXFA 529L, +3 μg/ml circiliol, median of 2-5 experiments.

Entries after “also recorded” stand apart in the source; their conditions may differ.

On to `Nc1ccn([C@@H]2O[C@H](CO)[C@@H](O)C2(F)F)c(=O)n1` [gemcitabine, 2′, 2′-diflouro-2′-deoxycytidine, reference compound], for which the “IC50 of gemcitabine alone” value in assay [1] (setting [3]) is 0.355 µg/mL. Further, the “IC70 of gemcitabine alone” value in assay [1] (setting [3]) turned out to be 0.64 µg/mL; in assay [2] (LXFA 526L, 0 μg/ml circiliol, median of 2-5 experiments), 5.6 µg/mL; in assay [2] (LXFA 526L, 0 μg/ml circiliol, median of 2-5 experiments, listed as Gemcitabine) it was 5.7 µg/mL. In addition, the “IC50 of gemcitabine in combination with circiliol” value in assay [1] (setting [4]) is 0.039 µg/mL. In addition, the “IC70 of gemcitabine in combination with circiliol” value worked out at 0.076 µg/mL in assay [1] (setting [4]); 0.87 µg/mL in assay [2] (LXFA 526L, +3 μg/ml circiliol, median of 2-5 experiments); 0.58 µg/mL in assay [2] (LXFA 526L, +30 μg/ml circiliol, median of 2-5 experiments). The “fold increase of antitumour activity of gemcitabine (IC70 shift)” value in assay [1] (LXFA 529L, with 30 μg/ml circiliol) stood at 19 fold; in assay [2] (LXFA 526L, with 30 μg/ml circiliol) it was 10 fold. Further, the IC50 amounted to 0.36 µg/mL in assay [1] (LXFL 529L, LXFA 529L, 0 μg/ml circiliol, median of 2-5 experiments, read-out: IC50 of gemcitabine alone) and 0.63 µg/mL in assay [2] (LXFA 526L, 0 μg/ml circiliol, median of 2-5 experiments, read-out: IC50 of gemcitabine alone). Moreover, the “in vitro activity of the agent alone” value in assay [1] and in assay [2] was “potently active” each time.

Regarding `COc1cc2oc(-c3ccc(O)c(O)c3)cc(=O)c2c(O)c1OC` [Circiliol, 6,7-dimethoxy-5,3′4′-trihydroxyflavone], the “In vitro activity (Test/Control %)” value was found to be 102% in assay [1] (LXFA 529L, circiliol 3 μg/ml); 49% in assay [1] (LXFA 529L, circiliol 30 μg/ml); 39% in assay [1] (LXFA 529L, circiliol 300 μg/ml); 93% in assay [2] (LXFA 526L, circiliol 3 μg/ml); 53% in assay [2] (LXFA 526L, circiliol 30 μg/ml); 55% in assay [2] (LXFA 526L, circiliol 300 μg/ml). For the same compound, the “tumour effects (words)” value in assay [1] was “inactive alone”; in assay [1] (listed as circiliol), “no tumour effects”; in assay [2] it was “inactive alone”; in assay [2] (listed as circiliol), “no tumour effects”. For the same compound, the “inhibition of tumour growth in vitro” value in assay [1] (circiliol alone at 30 μg/ml) and in assay [2] (circiliol alone at 30 μg/ml) was 50% each time. Besides, the “antitumour activity in vitro” value in assay [1] (circiliol alone at <3 μg/ml) and in assay [2] (circiliol alone at <3 μg/ml) was “no antitumour activity” each time. In addition, the “in vitro activity of the agent alone” value in assay [1] and in assay [2] was “only moderately active; also recorded: low activity” in each case.
